The values below come from ChEMBL document CHEMBL3826947, “New 4-Acyl-1-phenylaminocarbonyl-2-phenylpiperazine Derivatives as Potential Inhibitors of Adenovirus Infection. Synthesis, Biological Evaluation, and Structure-activity Relationships” (J Med Chem, 2016).

Data set [1] is described as follows: Selectivity index, ratio of CC50 for human A549 cells to IC50 for inhibition of HAdV16 plaque formation in 293beta5 cells. In kind it is functional.
The test system of data set [2] is Human adenovirus 5. The experiment in a line: Antiviral activity against HAdV5 infected in human A549 cells assessed as inhibition of viral genome entry in nucleus by measuring nuclear associated viral DNA level at 50 uM after 45 mins by real time PCR method (reference value: 78.55 +/- 1.37%). In kind it is functional. On the set-up: scale not given: the % may be the effect or the level left. In general terms: Quantitative PCR measures a nucleic acid by following its amplification.

For data set [3], the system named is A549. The experiment in a line: Effect on GAPDH gene expression in human A549 cells at 50 uM after 24 hrs by quantitative real time PCR method. In kind it is ADME, cell-based. The conditions noted are these: a549, 24 h.
The subject of data set [4] is Human adenovirus 5. Briefly: Antiviral activity against HAdV5 infected in human A549 cells assessed as inhibition of viral entry at 50 uM preincubated for 45 mins followed by cell addition measured after 48 hrs by GFP reporter gene assay relative to control. In kind it is functional. To be noted: Human mastadenovirus C.
Data set [5] can be described thus: Antiviral activity against HAdV16 infected in human A549 cells assessed as reduction in viral yield at 50 uM after 48 hrs by virus burst size assay relative to control. In kind it is functional, Human adenovirus 16.
The test system of data set [6] is Human adenovirus 5. The experiment in a line: Antiviral activity against HAdV5 infected in 293beta5 cells assessed as inhibition of plaque formation at 10 uM after 7 days by GFP reporter gene assay relative to control. In kind it is functional. The conditions noted are these: Human mastadenovirus C, 293beta5, 168 h.
A short description of data set [7]: Antiviral activity against HAdV16 infected in 293beta5 cells assessed as inhibition of plaque formation after 7 days by GFP reporter gene assay. In kind it is functional, cell-based, Human adenovirus 16. To be noted: Human mastadenovirus B, 293beta5, 168 h. On the technique in general: A reporter such as luciferase makes a cellular process visible.
For data set [8], the system named is Human adenovirus 5. Briefly: Antiviral activity against HAdV5 infected in human A549 cells assessed as reduction in viral yield at 50 uM after 48 hrs by virus burst size assay relative to control. In kind it is functional.
Data set [9] is described as follows: Selectivity index, ratio of CC50 for human A549 cells to IC50 for inhibition of HAdV5 plaque formation in 293beta5 cells. In kind it is functional.
Data set [10] is described as follows: Cytotoxicity against human A549 cells assessed as cell viability after 48 hrs by Alamar blue assay. In kind it is cell-based. (The colour change of resazurin is a common sign of viable cells or microbes.)
The test system of data set [11] is Human adenovirus 5. Briefly: Antiviral activity against HAdV5 infected in human A549 cells assessed as inhibition of viral DNA replication at 50 uM after 24 hrs by quantitative real time PCR method relative to control. In kind it is functional. The conditions noted are these: Human mastadenovirus C, A549, 24 h.
The subject of data set [12] is Human adenovirus 5. The experiment in a line: Antiviral activity against HAdV5 infected in 293beta5 cells assessed as inhibition of plaque formation after 7 days by GFP reporter gene assay. In kind it is functional, organism-based. The conditions noted are these: for pIC50: Human mastadenovirus C, 293beta5, 168 h.
The subject of data set [13] is Human adenovirus 5. The experiment in a line: Antiviral activity against HAdV5 assessed as inhibition of E1A mRNA transcription measured 6 hrs post infection. In kind it is functional, organism-based.
For data set [14], the system named is Human adenovirus 5. The experiment in a line: Antiviral activity against HAdV5 infected in human A549 cells assessed as inhibition of viral entry preincubated for 45 mins followed by cell addition measured after 48 hrs by GFP reporter gene assay. In kind it is functional, organism-based. To be noted: for pIC50: Human mastadenovirus C.

pIC50: −log10 of the molar value. The source made the active and inactive calls. The calls are words filed in the database; no cut-off is given here.

Usually inhibition stands for the share of the control response that was lost under treatment. In general, pIC50 refers to the IC50 on a negative log10 scale, so that one unit is a factor of ten. A word on the CC50: it is the concentration giving 50% cytotoxicity. Take `O=C(c1cc2ccccc2o1)N1CCN(C(=O)Nc2ccccc2[N+](=O)[O-])C(c2ccccc2)C1` (stereo unspecified): the results for the “Ratio CC50/IC50” value in data set [1] and in data set [9] were 57.3 and 53.3, respectively. For the same compound, the Activity in [2] is given as 79.26%; in data set [3], “Non-toxic”. For the same compound, the inhibition at 50 µM in data set [4] came out at 38%; in [11] it was 73.1%. Further, the “fold change (FC)” value in [5] was 46.5; in [8] it was 34.5. Further, the inhibition at 10 µM in [6] amounted to 100%. Further, the figures for the pIC50 in [7] and in [12] were 5.64 and 5.60, respectively. Moreover, the cytotoxic concentration (CC50) at 48 h in [10] was determined as 132 µM. Moreover, the inhibition result in data set [12] was “Dose-dependent effect”.
Turning to `O=C(c1cc2ccccc2o1)N1CCN(C(=O)Nc2cc(C(F)(F)F)ccc2Cl)C(c2ccccc2)C1` (stereo unspecified), the “Ratio CC50/IC50” value is 72.7 in data set [1] and 116.2 in [9]. Also, the Activity in data set [2] turned out to be 85%. For the same compound, the inhibition at 50 µM in data set [4] amounted to 30%. The “fold change (FC)” value turned out to be 33.2 in data set [5] and 60.3 in data set [8]. Besides, in data set [13], the inhibition entry is “inactive”. In addition, the inhibition at 10 µM in data set [6] turned out to be 97%. Besides, the pIC50 was 5.74 in [7] and 5.96 in data set [12]. In [10], the CC50 at 48 h amounted to 131 µM. The inhibition entry in data set [12] was “Dose-dependent effect”.
For `N#Cc1ccc(NC(=O)N2CCN(C(=O)c3cc4ccccc4o3)CC2c2ccccc2)cc1` (stereo unspecified), the entries for the “Ratio CC50/IC50” value in [1] and in data set [9] were 51.2 and 42.7, respectively. For the same compound, the Activity in data set [2] is 81.05%; in [3] it was “Non-toxic”. Moreover, the inhibition at 50 µM is 63% in data set [4] and 88.5% in data set [11]. Further, the “fold change (FC)” value in data set [5] turned out to be 60.9; in [8] it was 16.9. For the same compound, in [6], the inhibition at 10 µM came out at 98%. The figures for the pIC50 in data set [7] and in data set [12] were 5.41 and 5.33, respectively. Also, the 50% cytotoxic concentration (CC50) at 48 h in data set [10] was 200 µM. In addition, the inhibition result in data set [12] is “Dose-dependent effect”.
As to `CC(C)(C)OC(=O)N1CCN(C(=O)Nc2ccc([N+](=O)[O-])cc2)C(c2ccccc2)C1` (stereo unspecified), the entries for the “Ratio CC50/IC50” value in [1] and in data set [9] were 33.6 and 47.3, respectively. The Activity in [2] is recorded as 77.96%; in data set [3] it was “Non-toxic”. In addition, the inhibition at 50 µM stood at 80% in data set [4] and 80.7% in data set [11]. Further, the “fold change (FC)” value in data set [5] came out at 265.5; in data set [8] it was 211.7. Also, the inhibition at 10 µM in data set [6] was 96%. In addition, the pIC50 in [7] is 5.32; in [12] it was 5.47; in [14], 4.49. Further, the CC50 at 48 h in data set [10] is 161 µM. Besides, the inhibition result in data set [12] and in data set [14] was “Dose-dependent effect” each time.
Consider `O=C(c1cc2ccccc2o1)N1CCN(C(=O)Nc2ccc([N+](=O)[O-])cc2)C(c2ccccc2)C1` (stereo unspecified), for which the results for the “Ratio CC50/IC50” value in [1] and in [9] were 55.4 and 93.5, respectively. For the same compound, the Activity is 77.99% in data set [2] and “Non-toxic” in [3]. In addition, the inhibition at 50 µM in data set [4] came out at 84%; in data set [11] it was 80.9%. For the same compound, the “fold change (FC)” value was found to be 34.6 in data set [5] and 35.7 in data set [8]. For the same compound, the inhibition at 10 µM in [6] was 100%. The results for the pIC50 in data set [7], in [12] and in [14] were 5.46, 5.68 and 4.57, respectively. The CC50 at 48 h in [10] is 194 µM. Further, the inhibition result in [12] and in data set [14] was “Dose-dependent effect” each time.
For `O=C(c1cc2ccccc2o1)N1CCN(C(=O)Nc2ccc(Cl)cc2)C(c2ccccc2)C1` (stereo unspecified), the “Ratio CC50/IC50” value in data set [1] was determined as 56.9; in [9], 79. Also, the results for the Activity in [2] and in data set [3] were 77.71% and “Non-toxic”, respectively. Further, the inhibition at 50 µM is 33% in data set [4] and 78.9% in data set [11]. For the same compound, the “fold change (FC)” value in data set [5] was found to be 27.4; in [8] it was 9.9. The inhibition at 10 µM in data set [6] was 100%. Besides, the pIC50 in data set [7] is 5.47; in data set [12], 5.60. In addition, in data set [10], the CC50 at 48 h is 194 µM. For the same compound, in [12], the inhibition entry is “Dose-dependent effect”.
